Patent publication US20150133456A1, “FLUOROERGOLINE DERIVATIVES AND USES THEREOF” (MAP PHARMACEUTICALS, INC., priority 2012, published 2015)

Experiments:
[1] = biological target: human 5-HT1D receptor (Homo sapiens, UniProt P28221); experiment: GTPγS agonist assay, 5-HT1D; format: biochemical
Procedure: The mixture was shaken for 2 minutes prior to a 60 min incubation. It was then centrifuged for 10 minutes and counted for 1 minute with a Perkin Elmer TopCount reader. The resulting emission of light was recorded using a luminometer. Agonist percentage activation determinations were obtained by comparing with the Emax of the reference agonist α-methyl-5-HT.

[2] = biological target: T1, human 5-HT2B receptor (Homo sapiens, UniProt P41595); experiment: Aequorin assay, antagonist activity at 5-HT2B; format: cell-based
T1 construct: host or cells: CHO-K1 coexpressing mitochondrial apoaequorin
Procedure: Percentage inhibition values were determined for 2-CF3 dihydroergotamine on the 5-HT2B receptor.

[3] = tested on: Calcitonin (AM1/AM2); experiment: Calcitonin (AM1/AM2) cAMP HTRF assays; format: cell-based, human
Procedure: Cells expressing the human recombinant receptor of interest were grown in media without antibiotic and detached by gentle flushing with PBS-EDTA (5 mM EDTA), recovered by centrifugation and resuspended in assay buffer (KRH: 5 mM KCl, 1.25 mM MgSO4, 124 mM NaCl, 25 mM HEPES, 13.3 mM glucose, 1.25 mM KH2PO4, 1.45 mM CaCl2, 0.5 g/L BSA). Dose response curves were performed in parallel with the reference compounds. For agonist tests (96-well plates), 12 μL of cells was mixed with 12 μL of the test compound at increasing concentrations and then incubated for 30 minutes at room temperature. Lysis buffer was added and after a 1 hour incubation, cAMP concentrations was determined according to the manufacturer specification with the HTRF kit. […] Lysis buffer was added and after a 1 hour incubation, cAMP concentrations were determined according to the manufacturer specification, with the HTRF kit.
Cells expressing the human recombinant receptor of interest were grown in media without antibiotic and detached by gentle flushing with PBS-EDTA (5 mM EDTA), recovered by centrifugation and resuspended in assay buffer (KRH: 5 mM KCl, 1.25 mM MgSO4, 124 mM NaCl, 25 mM HEPES, 13.3 mM glucose, 1.25 mM KH2PO4, 1.45 mM CaCl2, 0.5 g/L BSA). […] Lysis buffer was added and after a 1 hour incubation, cAMP concentrations was determined according to the manufacturer specification with the HTRF kit. […]

[4] = biological target: T2, Adenosine A2a (Homo sapiens, UniProt P29274); experiment: Adenosine A2a cAMP HTRF assay; format: cell-based; settings: HEK293, cAMP
T2 construct: expressed in transfected cells; host or cells: HEK293
Procedure: Cells expressing the human recombinant receptor of interest were grown in media without antibiotic and detached by gentle flushing with PBS-EDTA (5 mM EDTA), recovered by centrifugation and resuspended in assay buffer (KRH: 5 mM KCl, 1.25 mM MgSO4, 124 mM NaCl, 25 mM HEPES, 13.3 mM glucose, 1.25 mM KH2PO4, 1.45 mM CaCl2, 0.5 g/L BSA). Dose response curves were performed in parallel with the reference compounds. For agonist tests (96-well plates), 12 μL of cells was mixed with 12 μL of the test compound at increasing concentrations and then incubated for 30 minutes at room temperature. Lysis buffer was added and after a 1 hour incubation, cAMP concentrations was determined according to the manufacturer specification with the HTRF kit. For antagonist tests (96-well plates), 12 μL of cells was mixed with 6 μL of the test compound at increasing concentrations and then incubated for 10 minutes. 6 μL of the reference agonist was added at a final concentration corresponding to the historical EC80. The plates were then incubated for 30 minutes at room temperature. Lysis buffer was added and after a 1 hour incubation, cAMP concentrations were determined according to the manufacturer specification, with the HTRF kit.

[5] = tested on: Somatostatin (SST1~SST5); experiment: Somatostatin receptor GTPγS assays; format: biochemical, human
Procedure: Reagents used were the following: Assay buffer (20 mM HEPES, pH 7.4; 100 mM NaCl; 10 μg/mL saponin; 30 mM MgCl2); Membranes (recombinant human receptor membrane extracts were thawed on ice and diluted in assay buffer to give 1000 μg/mL ([…]) and kept on ice); GDP (diluted in assay buffer to give 30 μM solution (3 μM final concentration); beads (PVT-WGA (Amersham, RPNQ001), diluted in assay buffer at 25 mg/mL (0.25 mg/10 μL)); GTPγ^35S (Perkin Elmer, NEG030X), diluted in assay buffer to give 0.1 nM (final concentration); and ligand (agonist/antagonist diluted in assay buffer).
Membranes were mixed with GDP (1:1) and incubated for at least 15 minutes on ice. In parallel GTPγ^35S was mixed with the beads (1:1) just before starting the reaction. The following reagents were successively added in the wells of an Optiplate (Perkin Elmer): 50 μL test compound or reference ligand, 20 μL of the membranes:GDP mix (then 15 minute incubation for antagonist test), 10 μL of reference agonist at historical EC80 (for antagonist test) or 10 μL of assay buffer (for agonist test) and 20 μL of the GTPγ^35S:beads mix. […] The plates were then centrifuged for 10 minutes at 2000 rpm and incubated at room temperature for 1 hour and counted for 1 min/well with a Perkin Elmer TopCount reader.

[6] = tested on: Purinergic (P2X1/P2X2/P2X3/P2X4/P2X7); experiment: Purinergic receptor QPatch patch clamp, agonist and antagonist modes; format: cell-based, human; settings: agonist and antagonist modes at 3 and 10 μM
Procedure: Human recombinant purinergic receptor expressing HEK293 cells were used and receptor activity was evaluated at room temperature using QPatch HT® (Sophion Bioscience A/S, Denmark) automatic parallel patch clamp system. 2CF3-DHE was evaluated in both agonist and antagonist modes at 3 and 10 μM. Each concentration was tested in triplicates.

[7] = Metabolism in human liver microsomes; settings: 1 μM, 0.2 mg protein/mL
Procedure: Metabolism of dihydroergotamine (DHE) and 2-CF3 DHE was evaluated in human liver microsomes. DHE mesylate and 2-CF3 DHE mesylate (1 μM each) were incubated separately with human liver microsomes (0.2 mg protein/mL) in triplicate at 37° C. in 0.2 mL (final volume) incubation buffer (50 mM potassium phosphate buffer, pH 7.4, 3 mM MgCl2 and 1 mM EDTA, pH7.4) with or without cofactor, NADPH-generating system. The NADPH-generating system consisted of 1 mM NADP, pH 7.4, 5 mM glucose-6-phosphate, pH 7.4 and 1 unit/mL glucose-6-phosphate dehydrogenase. DHE was added to the incubation mixtures in water. 2-CF3-DHE was added to incubation mixtures in 50:50 (v:v) acetonitrile:water. A low level of acetonitrile in the incubation was maintained to avoid any solvent effects on enzyme activity (typically at 0.5% or lower). Reactions were initiated by the addition of the NADPH-generating system and were terminated at 0, 15, 30 and 60 minutes after initiation by the addition of […], of stop reagent (acetonitrile) containing two internal standards (4′-hydroxydiclofenac-d4 and 1′-hydroxymidazolam-d4, 200 and 50 ng/mL in the final stopped incubation, respectively). The samples were then centrifuged and the supernatant fractions were analyzed by LC/MS/MS to quantify the formation of 8′-OH-DHE (metabolite) in the DHE samples and DHE and 8′-OH-DHE in the 2-CF3-DHE samples.

T1 sequence (P41595 whole entry): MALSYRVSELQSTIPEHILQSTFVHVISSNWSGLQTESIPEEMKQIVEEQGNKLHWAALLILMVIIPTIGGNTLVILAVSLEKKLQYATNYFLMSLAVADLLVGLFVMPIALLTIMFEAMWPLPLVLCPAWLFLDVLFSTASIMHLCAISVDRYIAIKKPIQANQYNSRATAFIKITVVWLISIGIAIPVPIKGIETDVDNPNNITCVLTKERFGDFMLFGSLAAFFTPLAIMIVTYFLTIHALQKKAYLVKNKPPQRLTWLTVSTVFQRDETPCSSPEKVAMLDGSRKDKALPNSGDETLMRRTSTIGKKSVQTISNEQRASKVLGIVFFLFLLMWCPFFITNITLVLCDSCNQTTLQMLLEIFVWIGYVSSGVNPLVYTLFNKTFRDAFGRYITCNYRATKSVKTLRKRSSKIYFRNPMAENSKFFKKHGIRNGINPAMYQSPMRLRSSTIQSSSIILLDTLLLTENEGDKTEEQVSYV
T2 sequence (P29274 whole entry): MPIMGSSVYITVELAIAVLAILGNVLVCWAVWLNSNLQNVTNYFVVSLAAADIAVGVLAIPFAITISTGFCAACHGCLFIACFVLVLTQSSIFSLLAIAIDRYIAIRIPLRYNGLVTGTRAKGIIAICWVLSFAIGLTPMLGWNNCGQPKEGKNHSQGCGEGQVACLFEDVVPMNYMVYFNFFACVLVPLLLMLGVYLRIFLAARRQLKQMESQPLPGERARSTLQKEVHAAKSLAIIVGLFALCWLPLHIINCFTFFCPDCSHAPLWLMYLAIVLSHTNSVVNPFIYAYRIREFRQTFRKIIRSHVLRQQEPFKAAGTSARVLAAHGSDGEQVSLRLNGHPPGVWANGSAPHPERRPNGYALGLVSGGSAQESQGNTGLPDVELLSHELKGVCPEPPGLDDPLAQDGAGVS
human 5-HT1D receptor, sequence (P28221 whole entry): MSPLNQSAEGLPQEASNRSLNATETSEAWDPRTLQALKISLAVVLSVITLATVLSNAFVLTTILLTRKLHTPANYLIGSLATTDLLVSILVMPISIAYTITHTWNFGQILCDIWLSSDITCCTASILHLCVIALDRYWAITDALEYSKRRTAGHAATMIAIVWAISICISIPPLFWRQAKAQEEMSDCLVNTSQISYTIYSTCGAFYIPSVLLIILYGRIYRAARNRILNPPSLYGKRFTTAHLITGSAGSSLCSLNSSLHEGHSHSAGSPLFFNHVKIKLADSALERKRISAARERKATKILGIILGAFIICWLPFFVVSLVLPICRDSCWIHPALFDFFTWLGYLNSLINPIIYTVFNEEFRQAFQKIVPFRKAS

CN1C[C@H](C(=O)N[C@]2(C)O[C@@]3(O)[C@@H]4CCCN4C(=O)[C@H](Cc4ccccc4)N3C2=O)CC2c3cccc4[nH]c(C(F)(F)F)c(c34)CC21 (stereo partly shown) [2-CF3-dihydroergotamine]
EC50 [1]: 13.6 nM
antagonism of the 5-HT2B receptor ([2]; FIG. 2): potent antagonism
IC50 ([2]; reference agonist at its EC80, read-out: IC50, 5-HT2B antagonism): 204 nM
Activity (Agonism: EC50; Antagonism: IC50) [3]: Inactive
Emax [4]: 25%
EC50 ([4]; read-out: EC50, Adenosine A2a agonism): 5.27 nM
Activity (Agonism: EC50; Antagonism: IC50) [5]: Inactive
Activity (Agonism: EC50; Antagonism: IC50) [6]: Inactive
metabolism by human liver microsomes in the presence of NADPH ([7]; 0 to 60 minutes): extensively metabolized
intrinsic clearance, slower than that of DHE ([7]; with NADPH): about 85%
